Assay results: US10471118B2, “Retinylamine derivitives for treatment of ocular disorders” (CASE WESTERN RESERVE UNIVERSITY, priority 2014, dated 2019)

Assays:
[1] = Biodistribution of N-retinylamides and retinylamine derivatives in liver and eye after oral gavage; format: in vivo, mouse; settings: for original drug detected in the eye: 2 h and 16 h
Procedure: Female C57BL mice (4-week-old) were randomly divided into seven groups, six treated groups and one control group. Free Ret-NH2 (3.5 μmol per mouse, dissolved in DMSO and dispersed in vegetable oil) or retinylamine derivatives (Ret-Gly, Ret-L-Val-Gly, Ret-L-Phe, Ret-L-Leu, Ret-L-Val, 3.5 μmol per mouse, dissolved in DMSO and dispersed in vegetable oil) was administered by gastric gavage, control group was only gavaged vegetable oil. Then at each predetermined time point (2 and 16 h after drug administration), 3 mice were sacrificed. The liver and eye balls were collected to determine tissue N-retinylamide content for pharmacokinetic analysis. A portion of the liver tissue (0.3-0.5 g) was weighed, homogenized in 2 mL 1:1 ethanol:PBS solution and the eye balls were similarly processed (eye balls were combined for 3 mice). N-Retinylamides were extracted in 4 mL hexane, concentrated, and reconstituted to a 300 μL volume for liver (200 μL for eye). Normal-phase HPLC (Agilent-Zorbax SIL; 5 μm; 4.5×250 mm; flow rate of 1.4 mL/min; 80:20 hexane:ethyl acetate (v:v); detection at 325 nm) was utilized to determine N-retinylamide concentration in these tissues.
Female C57BL mice (4-week-old) were randomly divided into seven groups, six treated groups and one control group. Free Ret-NH2 (3.5 μmol per mouse, dissolved in DMSO and dispersed in vegetable oil) or retinylamine derivative (Ret-Gly, Ret-L-Val-Gly, Ret-L-Phe, Ret-L-Leu, Ret-L-Val, 3.5 μmol per mouse, dissolved in DMSO and dispersed in vegetable oil) was administered by gastric gavage, control group was only gavaged vegetable oil. Then at each predetermined time point (2 and 16 h after drug administration), 3 mice were sacrificed. The liver and eye balls were collected to determine tissue drug content for pharmacokinetic analysis. A portion of the liver tissue (0.3-0.5 g) was weighed, homogenized in 2 mL 1:1 ethanol:PBS solution and the eye balls were similarly processed. Retinylamine or its derivative was extracted in 4 mL ethyl acetate, concentrated, and reconstituted to a 300 μL volume for liver (200 μL for eye). Reverse-phase HPLC (analytical C18 reverse column; 5 μm; 250 mm×4.6 mm; flow rate of 1.0 mL/min; 60:40 acetonitrile:H2O (v:v) with 0.05% trifluoroacetic acid; detection at 325 nm) was utilized to determine retinylamine or its derivative in these tissues. […]
No N-retinylamides were detected in the eye at 2 h for all treated mice. The concentration of N-retinylamides in the liver of all treated mice increased at 16 h post-treatment. […] The concentrations of the original drugs were also determined in the liver and eye at 2 h and 16 h (FIGS. 7C, D). All tested drugs, including Ret-NH2, were detected in liver and their concentrations decreased from 2 h to 16 h.

[2] = biological target: RPE65 (Bos taurus, UniProt Q28175); experiment: Retinoid isomerase activity in RPE microsomes (11-cis-retinol production); format: biochemical, Bovine; settings: 0.5 to 10 μM compound, 10 μM all-trans-retinol, 1 h
Chain of RPE65 (Bos taurus, UniProt Q28175) (Q28175 whole entry): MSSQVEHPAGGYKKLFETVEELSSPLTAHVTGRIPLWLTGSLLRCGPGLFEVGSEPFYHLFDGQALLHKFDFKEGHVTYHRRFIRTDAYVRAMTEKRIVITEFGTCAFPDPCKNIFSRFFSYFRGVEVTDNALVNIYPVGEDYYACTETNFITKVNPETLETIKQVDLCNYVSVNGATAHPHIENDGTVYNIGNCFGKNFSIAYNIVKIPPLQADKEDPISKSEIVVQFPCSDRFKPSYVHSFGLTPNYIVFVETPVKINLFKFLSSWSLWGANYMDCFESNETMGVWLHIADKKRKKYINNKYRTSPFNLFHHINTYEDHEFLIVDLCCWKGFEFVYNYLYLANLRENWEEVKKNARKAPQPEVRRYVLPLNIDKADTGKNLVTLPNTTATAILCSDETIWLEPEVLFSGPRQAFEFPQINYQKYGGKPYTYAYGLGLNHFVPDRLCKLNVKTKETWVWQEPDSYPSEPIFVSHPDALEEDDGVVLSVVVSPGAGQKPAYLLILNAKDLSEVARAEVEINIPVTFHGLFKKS
Procedure: To destroy endogenous retinoids, 200-μl aliquots of RPE microsomes placed in a quartz cuvette were irradiated for 5 min at 0° C. with a ChromatoUVE transilluminator (model TM-15; UVP).
All assays were performed under dim red light. 2 μl of the synthesized retinylamine derivatives (RF and RVG) (DMF, 0.5-10 mM) was added into 10 mM Bis-Tris propane buffer (pH 7.4) containing 150 μg RPE microsomes, 1% BSA, 1 mM disodium pyrophosphate and 20 μM apo Retinaldehyde-binding protein 1 (CRALBP). The resulting mixture was pre-incubated at room temperature for 5 min. Then 1 μl all-trans-retinol (DMF, 20 mM) was added. The resulting mixture was incubated at 37° C. for 1 h. Reaction was quenched by addition of 300 μl methanol, and the products were extracted with 300 μl hexanes. Production of 11-cis-retinol was quantified by normal phase HPLC with 10% (v/v) ethyl acetate in hexanes as eluent. Flow rate was 1.4 ml·min^−1 Retinoids were detected by monitoring absorbance at 325 nm and quantified base on a standard curve reflecting relation between amount of 11-cis-retinol and area under the corresponding chromatography peak.

[3] = biological target: T1, RPE65 (Mus musculus, UniProt Q91ZQ5); experiment: In vivo RPE65 inhibition: 11-cis-retinal regeneration after photo-bleach; settings: 1.75 μmol per mouse oral 16 h prior to photo-bleach (7000 lux, 10 min), 24 h dark
T1 sequence (Q91ZQ5 2-533 limits assumed): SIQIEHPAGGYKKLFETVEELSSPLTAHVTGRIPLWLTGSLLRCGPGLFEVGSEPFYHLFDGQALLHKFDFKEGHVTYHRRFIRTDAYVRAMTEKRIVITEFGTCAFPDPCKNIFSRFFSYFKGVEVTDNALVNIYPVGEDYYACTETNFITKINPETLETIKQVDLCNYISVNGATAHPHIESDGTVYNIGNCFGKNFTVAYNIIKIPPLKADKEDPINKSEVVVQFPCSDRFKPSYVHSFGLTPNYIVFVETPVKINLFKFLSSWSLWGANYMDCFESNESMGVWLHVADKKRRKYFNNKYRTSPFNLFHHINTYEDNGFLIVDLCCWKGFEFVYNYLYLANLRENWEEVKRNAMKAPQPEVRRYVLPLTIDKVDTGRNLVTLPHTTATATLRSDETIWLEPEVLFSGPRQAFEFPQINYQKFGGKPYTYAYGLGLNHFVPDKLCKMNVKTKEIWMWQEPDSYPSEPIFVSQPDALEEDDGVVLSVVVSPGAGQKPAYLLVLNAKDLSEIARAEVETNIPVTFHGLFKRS
Procedure: The retinylamine derivatives (31 RVG and 3b RF) or Ret-NH2 were administered by oral gavage at same mole dose 1.75 μmol per mouse into dark-adapted C57BLwild-type female mice (n=3) at 16 h prior to photo-bleach. After photo-bleach (7000 lux, 10 min), mice were kept the dark room for 24 h to allow the visual cycle to recovery. Mice were then sacrificed and eyes were extracted for analysis. Mice without treatment prior to photo-bleach were set as control. Retinoid extraction was done by manually homogenizing eyes in 1 mL of 1:1 ethanol:PBS solution containing 40 mM hydroxylamine. Retinoids were extracted in 4 mL hexane, concentrated, and reconstituted to a volume of 200 μL. Normal-phase HPLC (Agilent-Zorbax SIL; 5 μm; 4.5×250 mm; flow rate of 1.4 mL/min; 90:10 hexane:ethyl acetate (v:v); detection at 325 nm) was utilized to analyze retinoid concentrations. In vivo RPE65 inhibition was analyzed by quantifying the amount of 11-cis-retinal within each eye.

[4] = 3.5 μmol per mouse oral, C57BL mice, 16 h

SMILES	original drug detected in the eye ([1]; 3.5 μmol per mouse oral)	metabolism in the eye ([1]; conclusion from biodistribution at 2 h and 16 h)	inhibition of RPE65 on 11-cis-retinol production [2]	regeneration of 11-cis-retinal in the eye [3]	N-retinylamides in the eye [1, 4]	liver concentration of N-retinylamides [1, 4]
CC1=C(/C=C/C(C)=C/C=C/C(C)=C/CNC(=O)[C@@H](N)Cc2ccccc2)C(C)(C)CCC1 [RF, (S)-2-amino-N-((2E,4E,6E,8E)-3,7-dimethyl-9-(2,6,6-trimethylcyclohex-1-en-1-yl)nona-2,4,6,8-tetraen-1-yl)-3-phenylpropanamide]	only detected at 2 h	rapidly metabolized into inactive N-retinylamides in the eye	partial inhibition, but not in a concentration dependent manner	faster regeneration of 11-cis-retinal in the eye, and weaker inhibition of retinoid cycle than Ret-NH2		
CC1=C(/C=C/C(C)=C/C=C/C(C)=C/CNC(=O)[C@@H](NC(=O)CN)C(C)C)C(C)(C)CCC1 [RVG, (S)-2-(2-aminoacetamido)-N-((2E,4E,6E,8E)-3,7-dimethyl-9-(2,6,6-trimethylcyclohex-1-en-1-yl)nona-2,4,6,8-tetraen-1-yl)-3-methylbutanamide]	only detected at 16 h		did not show significant inhibition	faster regeneration of 11-cis-retinal in the eye, and weaker inhibition of retinoid cycle than Ret-NH2	no detectable N-retinylamides in the eye	lower liver concentration of N-retinylamides than RF and RL
CC1=C(/C=C/C(C)=C/C=C/C(C)=C/CN)C(C)(C)CCC1 [Ret-NH2, (2E,4E,6E,8E)-3,7-dimethyl-9-(2,6,6-trimethylcyclohex-1-en-1-yl)nona-2,4,6,8-tetraen-1-amine]	No free Ret-NH2 was detected in the eye		concentration dependent inhibition of RPE65	much lower concentration of 11-cis-retinal than the untreated controls		
